Laboratory results taken from US7799785B2, “Substituted tetracyclic tetahydrofuran, pyrrolidine and tetrahydrothiophene derivatives” (Janssen Pharmaceutica NV, priority 2004, dated 2010).

Legend:
NET = biological target: T1, NET (Rattus norvegicus, UniProt Q63380); experiment: In vitro determination of NET reuptake inhibition ([3H]Nixosetine binding, rat brain cortex membranes)
T1 construct: Cortex from rat brain was collected and homogenised; from tissue; host or cells: rat brain cortex homogenate/membranes
T1 sequence (Q63380 1-617): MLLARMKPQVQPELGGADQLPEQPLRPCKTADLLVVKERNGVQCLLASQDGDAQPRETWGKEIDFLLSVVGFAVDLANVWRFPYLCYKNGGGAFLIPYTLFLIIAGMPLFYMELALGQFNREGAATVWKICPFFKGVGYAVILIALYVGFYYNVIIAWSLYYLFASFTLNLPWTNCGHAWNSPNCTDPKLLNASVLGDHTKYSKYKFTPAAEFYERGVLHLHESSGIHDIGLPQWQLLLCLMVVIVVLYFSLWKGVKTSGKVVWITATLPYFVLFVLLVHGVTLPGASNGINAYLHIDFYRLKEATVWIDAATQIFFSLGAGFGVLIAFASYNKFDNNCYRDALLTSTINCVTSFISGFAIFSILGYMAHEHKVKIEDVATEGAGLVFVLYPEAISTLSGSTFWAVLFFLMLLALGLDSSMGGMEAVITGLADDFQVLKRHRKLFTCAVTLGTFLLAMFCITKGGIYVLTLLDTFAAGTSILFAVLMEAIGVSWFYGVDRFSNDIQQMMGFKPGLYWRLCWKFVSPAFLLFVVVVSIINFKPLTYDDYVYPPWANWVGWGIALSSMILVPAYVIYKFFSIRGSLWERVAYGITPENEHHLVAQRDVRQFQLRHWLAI
Method: In vitro Determination of NET Reuptake Inhibition
Cortex from rat brain was collected and homogenised using an Ultra-Turrax T25 and a Dual homogeniser in ice-cold homogenising buffer containing Tris, NaCl and KCl (50 mM, 120 mM and 5 mM, respectively, pH 7.4) prior to dilution to an appropriate protein concentration optimised for specific and non-specific binding. […] Membrane-bound activity was detected by filtration through a Packard Filtermate harvester onto GF/B Unifilterplates, washed with ice-cold Tris-HCl buffer, containing NaCl and KCl (50 mM, 120 mM and 4 mM; pH 7.4; 6×0.5 ml). Filters were allowed to dry for 24 h before adding scintillation fluid. Scintillation fluid was allowed to saturate filters for 24 h before counting in a Topcount scintillation counter. Percentage specific bound and competition binding curves were calculated using S-Plus software (Insightful).

Structure (SMILES) | IC50 (NET) | also measured
CN(C)CC1CO[C@@H]2c3cc(F)ccc3Cc3ccccc3[C@@H]12 (mixture of isomers) [compound 47, [(3aR,12bS)-11-fluoro-3,3a,8,12b-tetrahydro-2H-dibenzo[3,4:6,7]cyclohepta[1,2-b]furan-3-yl]-N,N-dimethylmethanamine] | 11 nM | –
CN(C)CC1CO[C@H]2c3cc(F)ccc3Cc3ccccc3[C@@H]12 (mixture of isomers) [compound 48, [(3aR,12bR)-11-fluoro-3,3a,8,12b-tetrahydro-2H-dibenzo[3,4:6,7]cyclohepta[1,2-b]furan-3-yl]-N,N-dimethylmethanamine] | 224 nM | –
CC(=O)N1[C@@H](CN(C)C)C[C@@H]2c3ccccc3Cc3ccc(F)cc3[C@H]21 [36b, [(2R,3aR,12bS)-1-acetyl-11-fluoro-1,2,3,3a,8,12b-hexahydrodibenzo[3,4:6,7]-cyclohepta[1,2-b]pyrrol-2-yl]-N,N-dimethylmethanamine] | 3890 nM | –
CN(C)C[C@H]1C[C@@H]2c3ccccc3Cc3ccc(F)cc3[C@H]2N1 [37a, [(2R,3aR,12bS)-11-fluoro-1,2,3,3a,8,12b-hexahydrodibenzo[3,4:6,7]cyclohepta-[1,2-b]pyr-rol-2-yl]-N,N-dimethylmethanamine] | 7.94 nM | –
OCCN1CCN(C[C@H]2C[C@@H]3c4ccccc4Cc4ccc(F)cc4[C@H]3N2)CC1 [43a, 2-(4-{[(2R,3aR,12bS)-11-fluoro-1,2,3,3a,8,12b-hexahydrodibenzo[3,4:6,7]-cyclohepta[1,2-b]pyrrol-2-yl]methyl}-1-piperazinyl)ethanol] | > 10000 nM | –
CN1C[C@@H]2C[C@@H]3c4ccccc4Cc4ccc(F)cc4[C@H]3N2C1 [compound 1, (4aS,13bR,14aS)-6-fluoro-2-methyl-1,2,3,4a,9,13b,14,14a-octahydrodibenzo-[3′,4′:6′,7′]cyclohepta[1′,2′:4,5]pyrrolo[1,2-c]imidazole] | 115 nM | –
Fc1ccc2c(c1)[C@@H]1[C@H](C[C@H]3CNC(=S)N31)c1ccccc1C2 [compound 3, (4aS,13bR,14aS)-6-fluoro-1,4a,9,13b,14,14a-hexahydrodibenzo[3′,4′:6′,7′]cycloheta[1′,2′:4,5]pyrrolo[1,2-c]imidazole-3(2H)-thione] | – | NET Reuptake Inhibition (NET): 5.24
CN1CC(=O)N2[C@@H](C[C@@H]3c4ccccc4Cc4ccc(F)cc4[C@H]32)C1 [compound 4, (5aS,14bR,15aS)-7-fluoro-2-methyl-1,2,3,5a,10,14b,15,15a-octahydro-4H-dibenzo[3′,4′:6′,7′]cyclohepta[1′,2′:4,5]pyrrolo[1,2-a]pyrazin-4-one] | – | NET Reuptake Inhibition (NET): <5
CN(C)C[C@H]1C[C@@H]2c3ccccc3Cc3ccc(F)cc3[C@H]2N1C [compound 5, [(2R,3aR,12bS)-11-fluoro-1-methyl-1,2,3,3a,8,12b-hexahydrodibenzo[3,4:6,7]-cyclohepta[1,2-b]pyrrol-2-yl]-N,N-dimethylmethanamine] | 288 nM | –
CN1C[C@H]2C[C@@H]3c4ccccc4Cc4ccc(F)cc4[C@H]3N2C1=O [compound 7, (4aS,13bR,14aR)-6-fluoro-2-methyl-1,4a,9,13b,14,14a-hexahydrodibenzo-[3′,4′:6′,7′]cyclohepta[1′,2′:4,5]pyrrolo[1,2-c]imidazol-3(2H)-one] | 891 nM | –
Fc1ccc2c(c1)[C@@H]1[C@H](C[C@@H]3CNC(=S)N31)c1ccccc1C2 [compound 8, (4aS,13bR,14aR)-6-fluoro-1,4a,9,13b,14,14a-hexahydrodibenzo[3′,4′:6′,7′]-cyclohepta[1′,2′:4,5]pyrrolo[1,2-c]imidazole-3(2H)-thione] | – | NET Reuptake Inhibition (NET): 5.66; melting point: 150 to 151 °C
CSC1=NC[C@H]2C[C@@H]3c4ccccc4Cc4ccc(F)cc4[C@H]3N12 [compound 9, (4aS,13bR,14aR)-6-fluoro-3-(methylsulfanyl)-1,4a,9,13b,14,14a-hexahydrodibenzo[3′,4′:6′,7′]cyclohepta[1′,2′:4,5]pyrrolo[1,2-c]imidazole] | 3980 nM | –
COCC(=O)N1[C@@H](CN(C)C)C[C@@H]2c3ccccc3Cc3ccc(F)cc3[C@H]21 [compound 10, [(2R,3aR,12bS)-11-fluoro-1-(methoxyacetyl)-1,2,3,3a,8,12b-hexahydrodibenzo-[3,4:6,7]cyclohepta[1,2-b]pyrrol-2-yl]-N,N-dimethylmethanamine] | 4790 nM | –
O=C1CNC[C@H]2C[C@@H]3c4ccccc4Cc4ccc(F)cc4[C@H]3N12 [compound 12, (5aS,14bR,15aR)-7-fluoro-1,2,3,5a,10,14b,15,15a-octahydro-4H-dibenzo[3′,4′:6′,7′]cyclohepta[1′,2′:4,5]pyrrolo[1,2-a]pyrazin-4-one] | 3470 nM | –
O=C1NC[C@@H]2C[C@@H]3c4ccccc4Cc4ccc(F)cc4[C@H]3N12 [compound 15, (4aS,13bR,14aS)-6-fluoro-1,4a,9,13b,14,14a-hexahydrodibenzo[3′,4′:6′,7′]-cyclohepta[1′,2′:4,5]pyrrolo[1,2-c]imidazol-3(2H)-one] | 2400 nM | –
CN1C[C@@H]2C[C@@H]3c4ccccc4Cc4ccc(F)cc4[C@H]3N2C1=O [compound 16, (4aS,13bR,14aS)-6-fluoro-2-methyl-1,4a,9,13b,14,14a-hexahydrodibenzo-[3′,4′:6′,7′]cyclohepta[1′,2′:4,5]pyrrolo[1,2-c]imidazol-3(2H)-one] | > 10000 nM | –
CN(C)C[C@H]1C[C@@H]2c3ccccc3Oc3ccc(F)cc3[C@H]2N1 [compound 17, [(2R,3aR,12bS)-11-fluoro-2,3,3a,12b-tetrahydro-1H-dibenzo[2,3:6,7]oxepino[4,5-b]pyrrol-2-yl]-N,N-dimethylmethanamine] | 7.41 nM | –
OCCN1CCN(C[C@H]2C[C@@H]3c4ccccc4Oc4ccc(F)cc4[C@H]3N2)CC1 [compound 19, 2-(4-{[(2R,3aR,12bS)-11-fluoro-2,3,3a,12b-tetrahydro-1H-dibenzo[2,3:6,7]-oxepino[4,5-b]pyrrol-2-yl]methyl}-1-piperazinyl)ethanol] | > 10000 nM | –
OC1CCN(C[C@H]2C[C@@H]3c4ccccc4Oc4ccc(F)cc4[C@H]3N2)C1 (stereo partly drawn) [compound 20, 1-{[(2R,3aR,12bS)-11-fluoro-2,3,3a,12b-tetrahydro-1H-dibenzo[2,3:6,7]oxepino-[4,5-b]pyrrol-2-yl]methyl}-3-pyrrolidinol] | 417 nM | –
CN(C)C[C@@H]1C[C@@H]2c3ccccc3Cc3ccc(F)cc3[C@H]2S1(=O)=O [compound 22, [(2S,3aR,12bS)-11-fluoro-1,1-dioxido-3,3a,8,12b-tetrahydro-2H-dibenzo[3,4:6,7]-cyclohepta[1,2-b]thien-2-yl]-N,N-dimethylmethanamine] | 4790 nM | –
CN(C)C[C@H]1C[C@@H]2c3ccccc3Cc3ccc(F)cc3[C@H]2S1 [compound 23, [(2R,3aR,12bS)-11-fluoro-3,3a,8,12b-tetrahydro-2H-dibenzo[3,4:6,7]cyclohepta-[1,2-b]thien-2-yl]-N,N-dimethylmethanamine] | 28.2 nM | –
CN(C)C[C@@H]1C[C@@H]2c3ccccc3Cc3ccc(F)cc3[C@H]2[S@@+]1[O-] [compound 26, [(2S,3aR,12bS)-11-fluoro-1-oxido-3,3a,8,12b-tetrahydro-2H-dibenzo[3,4:6,7]-cyclohepta[1,2-b]thien-2-yl]-N,N-dimethylmethanamine] | > 10000 nM | –
O=C1CO[C@H]2c3cc(F)ccc3Cc3ccccc3[C@H]2C1 [compound 31, (4aR,13bR)-12-fluoro-4,4a,9,13b-tetrahydrodibenzo[3,4:6,7]cyclohepta[1,2-b]-pyran-3(2H)-one] | – | melting point: 146 to 148 °C
CN(C)[C@@H]1CO[C@H]2c3cc(F)ccc3Cc3ccccc3[C@H]2C1 [compound 32, (3S,4aR,13bR)-12-fluoro-N,N-dimethyl-2,3,4,4a,9,13b-hexahydrodibenzo[3,4:6,7]-cyclohepta[1,2-b]pyran-3-amine] | 19.5 nM | –
CNC[C@H]1C[C@@H]2c3ccccc3Cc3ccc(F)cc3[C@H]2N1C=O [compound 38, (2R,3aR,12bS)-11-fluoro-2-[(methylamino)methyll]-3,3a,8,12b-tetrahydrodibenzo-[3,4: 6,7]-cyclohepta[1,2-b]pyrrole-1(2H)-carbaldehyde] | 490 nM | –
CN(C)C[C@H]1C[C@@H]2c3ccccc3Cc3ccc(F)cc3[C@H]2N1CCO [compound 39, 2-((2R,3aR,12bS)-2-[(dimethylamino)methyl]-11-fluoro-3,3a,8,12b-tetrahydrodibenzo[3,4:6,7]cyclohepta[1,2-b]pyrrol-1(2H)-yl)ethanol] | 126 nM | –
COCCN1[C@@H](CN(C)C)C[C@@H]2c3ccccc3Cc3ccc(F)cc3[C@H]21 [compound 40, [(2R,3aR,12bS)-11-Fluoro-1-(2-methoxyethyl)-1,2,3,3a,8,12b-hexahydrodibenzo-[3,4:6,7]-cyclohepta[1,2-b]pyrrol-2-yl]-N,N-dimethylmethanamine] | 479 nM | –
Fc1ccc2c(c1)[C@H]1N[C@@H](CN3CCOCC3)C[C@@H]1c1ccccc1C2 [compound 42, (2R,3aR,12bS)-11-fluoro-2-(4-morpholinylmethyl)-1,2,3,3a,8,12b-hexahydrodibenzo[3,4:6,7]cyclohepta[1,2-b]pyrrole] | 5500 nM | –
COC(=O)N1[C@@H](CN(C)C)CC[C@@H]2c3ccccc3Cc3ccc(F)cc3[C@H]21 [compound 45, Methyl(2R,4aR,13bS)-2-[(dimethylamino)methyl]-12-fluoro-2,3,4,4a,9,13b-hexahydro-1H-dibenzo[3,4:6,7]cyclohepta[1,2-b]pyridine-1-carboxylate] | 794 nM | –
CNC[C@H]1CC[C@@H]2c3ccccc3Cc3ccc(F)cc3[C@H]2O1 [compound 46, [(2R,4aR,13bS)-12-fluoro-2,3,4,4a,9,13b-hexahydrodibenzo[3,4:6,7]cyclohepta-[1,2-b]pyran-2-yl]-N-methylmethanamine] | 398 nM | –
